This is an account of results in patent publication US20260325500A1, “METHODS AND COMPOSITIONS FOR TREATING ACUTE STRESS DISORDER” (BioXcel Therapeutics, Inc., priority 2022, published 2026).

The test system of this experiment is Yohimbine-induced noradrenergic hyperarousal in Wistar rats. Briefly: Elevated plus maze, yohimbine-induced noradrenergic hyperarousal, dose response (Example 3). In kind it is in vivo. The conditions noted are these: for Percent increase as referred to the Vehicle level, Entries / Percent increase as referred to the Vehicle level, Time: 60 min. An excerpt:
Background: Yohimbine is an alpha 2-adrenergic receptor antagonist reported to trigger panic attacks in healthy volunteers and to exacerbate symptoms in patients with panic disorder (Charney et al., 1992 Acta Psychiatr Scand., Vol. 86 (4): 273-282). Peripheral administration of Yohimbine causes noradrenergic mediated hyperarousal in rats as assessed by the EPM paradigm.
Rationale: The drug yohimbine is a natural product used to test a specific pathway, noradrenergic-mediated hyper-arousal. It is well established that yohimbine is an alpha2-adrenergic receptor antagonist and activates the locus coeruleus (LC) and increases noradrenergic signaling (the opposite of alpha2-adrenergic agonists like dexmedetomidine and clonidine). Increased LC activity and noradrenergic signaling makes animals anxious and agitated which can be measured by using the elevated plus maze. In the elevated plus maze, rodents were in the closed arms and explored the open arms depending on their anxiety and agitation (rats and mice normally explore their environments extensively when calm). […] This behavior is correlated to increased level of anxiety caused by noradrenergic mediated hyperarousal.
Animal groups: Rats were distributed in 9 different experimental groups with 12 […] per group as illustrated in Table 6. Each experimental group was also coded so that the experimenter became unaware of the true experimental group at the time EPM trial.
Acclimatization: Male Wistar rats (Janvier; Le Genest St Isle-France) were used for the study. They were purchased at a body weight of 150 g and reached a body weight of about 220 g at the time of use. They were group-housed (3-4 rats per cage) and maintained in a room with controlled temperature (21-22° C.) and a reversed light-dark cycle (12 h/12 h; lights on: 17:30-05:30; lights off: 05:30-17:30).
Drug preparation: All compounds/drugs were prepared in normal saline (0.9% NaCl).
Yohimbine was prepared at a solution of 2.5 mg/mL which when injected i.p. at a dosage volume of 1 mL/kg results in a dose of 2.5 mg/kg. Diazepam was prepared at a solution of 1 mg/mL which when injected i.p. at a dosage volume of 1 mL/kg results in a dose of 1 mg/kg. Latrepirdine dihydrochloride hydrate was prepared at a solution of 7.5, 2.5, 0.75 and 0.25 mg/mL which when injected i.m. at a volume of 100 μL for a rat of 250 g results in doses of 3; 1; 0.3 and 0.1 mg/kg; respectively. Latrepirdine dihydrochloride hydrate was also prepared at […] which when administrated i.p. at a dosage volume of 1 mL/kg results in a dose of 3 mg/kg.
Experimental procedure: The rats were randomly assigned to one of the different experimental groups. Each animal was identified by its group name, cage number, series (day) of experiment, and a number (from 1 to 9) written with permanent ink on its tail. They were handled by an experimenter for about 3 min each day during 1 week prior to the day of EPM trial. The apparatus was a PVC maze covered with Plexiglas and subdivided into four equal exploratory arms (40×10 cm), which were all interconnected by a small platform (10×10 cm). The apparatus was placed 65 cm above the floor. Two arms were opened, and two others were closed with wall (high: 10 cm). After compound administration, rat was placed on the platform opposite a closed arm. The number of entries and the time spent in each arm were recorded during a 5 min period. The animal was considered as entered in an arm when it placed its four paws in the arm. The apparatus was cleaned between each animal using alcohol (70%). Urine and feces were removed from the maze. During the trials, animal handling and the visibility of the operator were minimized as much as possible.
Statistical analysis: Analysis of variance (ANOVA) was performed on the result data. Fisher's PLSD was used for pairwise comparisons and p value≤0.05 were considered significant. […]

[1] abbreviates: 0.1 mg/kg, i.m., yohimbine hydrochloride 2.5 mg/kg i.p.
[2] abbreviates: 0.3 mg/kg, i.m., yohimbine hydrochloride 2.5 mg/kg i.p.
Setting [3] is: 1 mg/kg, i.m., yohimbine hydrochloride 2.5 mg/kg i.p.
The mark [4] stands for this setting: 3 mg/kg, i.m., saline (yohimbine-free rats).
The mark [5] stands for this setting: 3 mg/kg, i.m., yohimbine hydrochloride 2.5 mg/kg i.p.
The mark [6] stands for this setting: 3 mg/kg, i.p., yohimbine hydrochloride 2.5 mg/kg i.p.

Structures can show the parent of a compound that is named as a salt.

In the case of `Cc1ccc2c(c1)c1c(n2CCc2ccc(C)nc2)CCN(C)C1` [latrepirdine dihydrochloride hydrate], the “Percent increase as referred to the Vehicle level, Entries” value is, setting by setting: under setting [1], 21%; under setting [2], 11%; under setting [3], 106%; under setting [4], 167%; under setting [5], 172%; under setting [6], 183%. For the same compound, the “Percent increase as referred to the Vehicle level, Time” value is, setting by setting: under setting [1], 21%; under setting [2], 73%; under setting [3], 274%; under setting [4], 377%; under setting [5], 392%; under setting [6], 486%. Further, the “EPM performance of saline-treated rats (yohimbine-free)” value (3 mg/kg i.m.) is on record as “did not significantly modify the EPM performance”. In addition, the “EPM performance, i.m. compared with i.p. route” value (3 mg/kg, yohimbine rats) was “comparable to that of specimens treated intraperitoneally”. Further, the “noradrenergic mediated hyperarousal in yohimbine administered rats” value (1 and 3 mg/kg) is “Conclusion: The results showed that latrepirdine dihydrochloride hydrate (at 1 and 3 mg/kg) significantly reduced noradrenergic mediated hyperarousal in yohimbine administered rats in dose-dependent manner (see table 7 and FIGS. 5 and 6)”. In addition, where the note is “i.m., yohimbine administered rats, 0.1-3 mg/kg”, the “number of visits to and time spent into the open arms, significance” value was “effect was significant at the doses of 1 and 3 mg/kg”.
